Measurements reported in patent US10183011B2, “Anti-depression compounds” (Board of Regents of the University of Texas System, priority 2009, dated 2019).
“Also recorded” adds a separate entry of the source.

What was measured:
[1] = tested on: hippocampal neurogenesis in the DG; assay: Comparison of P7C3 compounds and antidepressant drugs: DG BrdU labeling after i.c.v. infusion; type: in vivo, mouse; conditions: 10 μM i.c.v. for 7 days
Source text: The neuroprotective efficacies of both P7C3 and P7C3-A20 were next compared to currently marketed antidepressant medications, using screening conditions identical to those by which P7C3 was originally discovered. This experiment was based on the antidepressant actions of P7C3 and P7C3-A20 characterized here, and the dependence on hippocampal neurogenesis for behavioral efficacy of some marketed antidepressant medications in mice.
Proneurogenic efficacies in the DG of P7C3 and P7C3A20 were compared to those of vehicle (artificial cerebrospinal fluid) and several marketed antidepressant compounds (Sigma-Aldrich, St. Louis, Mo.) according to established methods. In brief, mice were housed individually in cages without running wheels or any form of environmental enrichment, in order to create an environment predicted to have as low of a baseline level of hippocampal neurogenesis as possible. Compounds (10 μM, i.c.v.) were administered for 7 days via subcutaneously implanted Alzet osmotic minipumps connected to a cannula directed into the left lateral ventricle, with implantation day designated as day 0. Starting on day 1, mice also received daily injections of BrdU (50 mg/kg, i.p.) at 9 am daily, for 6 days. Twenty four hours after the sixth BrdU injection, mice were transcardially perfused as described above.

[2] = tested on: neural precursor cells in the subgranular zone of the dentate gyrus; assay: In vivo pro-neurogenic efficacy/neuroprotection assay: intracerebroventricular infusion, BrdU incorporation in the dentate gyrus; design: species or system mouse (C57/Bl6); conditions: direct administration into the brain via Alzet minipumps for one week, 10 μM unless stated
Experimental: Compounds were evaluated for pro-neurogenic efficacy/neuroprotection in our standard in vivo assay at 10 μM concentration in four 12 week old adult male C57/Bl6 mice.
In an effort to identify compounds that might stimulate the birth of new neurons, or protect newborn neurons from cell death, a library of 1,000 compounds was screened using an in vivo assay. In the initial screen, compounds were randomly pooled into groups often and administered intracerebroventricularly at a constant rate over seven days into the left lateral ventricle of living mice via Alzet osmotic mini-pumps. Compounds were administered at a concentration of 10 μM for each molecule, making a total solute concentration of 100 μM. After seven days of infusion at a constant rate of 0.5 μL/hour, a total of 84 μL of volume will have left the pump (0.00084 μMoles) and entered the cerebrospinal fluid. The average volume of a brain from a 12 week old male, C57/B6 mouse in our study is 500 mm^3. […] Under these conditions, at the end of one week of infusion each compound would be present at 1.7 μMolar concentration. Since the actual amount of chemical compound in the brain is likely to be only a fraction of this predicted level, it is reasonable to estimate that compounds were administered at mid to low-nanomolar concentrations.
During compound infusion, animals were intraperitoneally (IP) injected daily with the thymidine analog, bromodeoxyuridine (BrdU), as a means of scoring the birth and survival of proliferating neural precursor cells in the hippocampus. Because both social interaction and voluntary exercise are known to stimulate hippocampal neurogenesis, mice were housed individually without access to running wheels throughout the screening period. Following the week-long period of compound administration, animals were perfused and sacrificed. Dissected brain tissue was fixed, embedded, sectioned, stained with antibodies to BrdU, and evaluated by light microcopy as a means of quantifying neurogenesis and survival of newborn neural precursor cells localized to the subgranular layer of the dentate gyrus on the brain hemisphere contralateral to the side of mini-pump cannulation. Every fifth section throughout the entire rostral-caudal extent of the hippocampus was analyzed, and the total number of BrdU+ cells was normalized against the measured volume of the dentate gyrus. Because both increased proliferation and survival of newborn neurons are important screening parameters, the screen was conducted over seven days in order to cast a wide net to detect molecules that might augment either process. […] Intracranial infusions of either fibroblast growth factor 2 (FGF-2) or artificial cerebral spinal fluid (aCSF) vehicle via the same, week-long protocol were employed as positive and negative controls. There was no difference in the number of BrdU-labeled cells in the dentate gyrus between mice subjected to surgical pump implantation and infusion with vehicle, and mice having had no surgery (FIG. 2). This confirmed the validity of the in vivo approach to assess the ability of intracerebroventricularly infused compounds to enhance hippocampal neurogenesis in the contralateral hemisphere.
In order to further study Example 45 Compound, an in vivo structure activity relationship (SAR) study was conducted using 37 chemical derivatives of the compound for pro-neurogenic activity via direct administration into the brain of adult mice via Alzet minipumps. Compounds were administered for one week at 10 uM into 4 mice per compound, along with daily IP injections of BrdU. Following compound administration, animals were perfused, sacrificed and subjected to sectioning, staining and light microscopy in order to monitor hippocampal neurogenesis localized to the subgranular layer of the dentate gyrus. Roughly 10% of the variant compounds retained pro-neurogenic activity indistinguishable from the parent compound. […]

SNc dopaminergic neurons = assay: MPTP-toxicity to SNc dopaminergic neurons, treatment started 24 hours after the last MPTP dose; type: in vivo, mouse (C57Bl/6); conditions: new analogs, 10 mice for each compound
Experimental: FIG. 29A and FIG. 29B. Neuroprotective efficacy of P7C3 and P7C3A20 from MPTP-toxicity to SNc dopaminergic neurons. FIG. 29A—Test compounds were evaluated by dose response assay for their ability to block MPTP-neurotoxicity in the SNc. […] VEH group contained 30 animals: 15 animals that received the P7C3A20/P7C3 vehicle, and 15 animals that received Dimebon vehicle (saline). […] Representative immunohistochemical pictures of TH-staining in the SNc are shown below the graph. Dosing is expressed as total mg/day, and was administered intraperitoneally in divided doses twice daily. Data are expressed as mean±SEM. […] P7C3A20 does so with greater effect, and Dimebon offers no protection. Striatal sections were obtained from the same mice used in FIG. 2, and compound treatment groups are from mice that received a dose of 20 mg/kg/d.
We compared the protective efficacy of our agents in the Tatton and Kish model of MPTP administration, which induces prolonged apoptotic death of SNc dopaminergic neurons lasting about 3 weeks after a short course of daily MPTP administration. Mice were treated daily for 5 days with 30 mg/kg/day free base MPTP. On the sixth day, 24 hours after receiving the fifth and final dose of MPTP, daily treatment with P7C3, P7C3A20, Dimebon or vehicle was initiated. […] Dose-response studies were conducted in which mice received twice daily doses of each compound (or vehicle) for the ensuing 21 days (FIG. 29A). […] At the end of the 21 day treatment period, mice were sacrificed by transcardial perfusion with 4% paraformaldehyde, and fixed brains were sectioned through the striatum and SNc at 30 μM intervals. Every fourth section (spaced 120 μM apart) was stained with antibodies specific to tyrosine hydroxylase (TH) (Abcam, rabbit anti-TH, 1:2500). The TH enzyme catalyzes the conversion of the amino acid L-tyrosine to L-3,4-dihydroxyphenylalanine (L-DOPA), which serves as the precursor for dopamine. TH staining thus provides a means to immunohistochemically identify dopaminergic neurons. By counting the number of TH+ cells in the SNc, we were able to assess the neuroprotective efficacy of the three chemicals following MPTP exposure. All microscopic analysis was performed by two investigators, blind to treatment group.
15 adult male C57Bl/6 mice were individually housed for one week and then injected daily for 5 days with 30 mg/kg/day (i.p.) free base MPTP (Sigma). On day 6, 24 hours after receiving the fifth and final dose of MPTP, daily treatment with P7C3, P7C3A20, Dimebon or vehicle was initiated. Mice were housed in disposable caging, and protective gear and precautions were implemented for handling MPTP in accordance with UT Southwestern Medical Center policy. Dose response studies were conducted in which mice received twice daily doses of each compound (or vehicle) by intraperitoneal injection for the following 21 days, after which mice were sacrificed by transcardial perfusion with 4% paraformaldehyde. Brains were dissected, fixed overnight in 4% paraformaldehyde, and cryoprotected in sucrose for freezing by standard procedures. Frozen brains were sectioned through the striatum and SNc at 30 uM intervals, and every fourth section (spaced 120 μM apart) was stained with antibodies directed against tyrosine hydroxylase (TH) (Abcam, rabbit anti-TH, 1:2500). Diaminobenzidine was used as a chromagen, and tissue was counter-stained with hematoxylin to aid in visualization of the neuroanatomy. Images were analyzed with a Nikon Eclipse 90i motorized research microscope with Plan Apo lenses coupled with Metamorph Image Acquisition software (Nikon). TH+ neurons were counted with Image J software (NIH) in every section by 2 blinded investigators and results were averaged and multiplied by the sectioning interval to determine the total number of TH+ neurons per SNc.

SMILES	increase of DG neurogenesis (BrdU labeling) over vehicle [1]	pro-neurogenic activity in the in vivo hippocampal neurogenesis assay [2]	activity in the MPTP protection assay (SNc dopaminergic neurons)	other results
CN(C)CCCN1c2ccccc2CCc2ccccc21 [imipramine]	did not affect the magnitude of neurogenesis			
COc1cccc(NCC(O)Cn2c3ccc(Br)cc3c3cc(Br)ccc32)c1 (stereo not shown) [Example 62 Compound, 1-(3,6-Dibromo-9H-carbazol-9-yl)-3-(3-methoxyphenylamino)-propan-2-ol]		activity comparable to Example 45 Compound; also recorded: retained robust activity		
COc1cccc(NCC(O)Cn2c3ccc(Br)cc3c3cc(Br)ccc32)c1 (single isomer, unassigned; (+)) [(+) (dextrorotatory) enantiomer of 1-(3,6-Dibromo-9H-carbazo]		higher activity		
O=C(O)Cn1c2ccc(Br)cc2c2cc(Br)ccc21 [Example P7C3-S165]		neuroprotection was observed in both assays	neuroprotection was observed in both assays	
CNCCC(Oc1ccc(C(F)(F)F)cc1)c1ccccc1 (stereo not shown) [fluoxetine]	did not affect the magnitude of neurogenesis			
OC(COc1ccccc1)Cn1c2ccc(Br)cc2c2cc(Br)ccc21 (stereo not shown) [Example P7C3S40]		neuroprotective activity in both assays resides exclusively in the S enantiomer	neuroprotective activity in both assays resides exclusively in the S enantiomer	
COc1cccc(NCC(O)Cn2c3ccc(Br)cc3c3cc(Br)ccc32)c1 (single isomer, unassigned; (-)) [(−) enantiomer of Example 62 Compound, 1-(3,6-Dibromo-9H-carbazol-9-yl)-3-(3-methoxyphenylamino)-propan-2-ol]		displayed diminished activity		
CN[C@H]1CC[C@@H](c2ccc(Cl)c(Cl)c2)c2ccccc21 [sertraline]	did not affect the magnitude of neurogenesis			
O[C@H](COc1ccccc1)Cn1c2ccc(Br)cc2c2cc(Br)ccc21 [Example P7C3S41]		neuroprotective activity in both assays resides exclusively in the S enantiomer; also recorded: potency equal to or greater than P7C3 in both in vivo assays	neuroprotective activity in both assays resides exclusively in the S enantiomer; also recorded: potency equal to or greater than P7C3 in both in vivo assays	
COc1cccc(NCC(F)Cn2c3ccc(Br)cc3c3cc(Br)ccc32)c1 (single isomer, unassigned) [Example 144a, N-(3-(3,6-dibromo-9H-carbazol-9-yl)-2-fluoropropyl)-3-methoxyaniline]		more active than P7C3-S114		
OC(CNc1ncccn1)Cn1c2ccc(Br)cc2c2cc(Br)ccc21 (stereo not shown) [Example P7C3-S8]		devoid of activity in both assays	devoid of activity in both assays	
COc1cccc(NCC(C)(O)Cn2c3ccc(Br)cc3c3cc(Br)ccc32)c1 (stereo not shown) [Example P7C3-S54]		retain neuroprotective activity in both assays	retain neuroprotective activity in both assays	
Cc1cc(C)n(CC(O)Cn2c3ccc(Br)cc3c3cc(Br)ccc32)n1 (stereo not shown) [Example P7C3-S25]		active in both	active in both	
COc1cccc(NCC(O)Cn2c3ccc(Br)cc3c3cc(Br)ccc32)c1 (single isomer, unassigned; (-)) [(−) (levorotatory) enantiomer of 1-(3,6-Dibromo-9H-carbazol-]		lower activity		
CC(NC(C)(C)C)C(=O)c1cccc(Cl)c1 (stereo not shown) [bupropion]	about 49%			
COc1ccc(C(CN(C)C)C2(O)CCCCC2)cc1 (stereo not shown) [venlafaxine]	did not affect the magnitude of neurogenesis			
Fc1ccc([C@@H]2CCNC[C@H]2COc2ccc3c(c2)OCO3)cc1 [paroxetine]	did not affect the magnitude of neurogenesis			
CN(C)CCCN1c2ccccc2CCc2ccc(Cl)cc21 [clomipramine]	~75%			
OC(CSc1ccccc1)Cn1c2ccc(Br)cc2c2cc(Br)ccc21 (stereo not shown) [Example P7C3-S7]		active in both	active in both	pro-neurogenic activity in the in vivo hippocampal neurogenesis assay ([2]; listed as P7C3S7): potency equal to or greater than P7C3 in both in vivo assays; activity in the MPTP protection assay (SNc dopaminergic neurons; listed as P7C3S7): potency equal to or greater than P7C3 in both in vivo assays
